“Also recorded” adds a separate entry of the source.
What was measured:
HFKTs (KTN) = experiment: Conditions improving HFKT reprogramming: validated iPSC colonies; format: cell-based, human; settings: for Validated iPSCs colonies: frozen virus, reduced virus concentration
[1] = test system: HFKT-iPSC-CMs (β-adrenergic signaling pathway); experiment: [Ca2+]i transients and contractions of HFKT-iPSC-derived cardiomyocytes; format: cell-based, human; settings: HFKT-iPSC-CMs clone KTR13, 37 day-old EB, stimulated at 0.6 Hz; effect within 2-3 min
Procedure: [Ca^2+]i transients and contractions were measured in small dissociated contracting areas of EBs by means of fura-2 fluorescence (Biotium, Hayward, Calif., USA) and a video edge detector, respectively, as previously described (Dolnikov et al. 2006; Sedan et al. 2008).
In order to investigate the basic properties of the intracellular Ca^2+ ([Ca^2+]i) handling machinery and the mechanical function, [Ca^2+]I transients and contractions were recorded from small contracting clusters of the HFKT-iPSC-CMs by means of fura-2 fluorescence and a video edge detector, respectively.

For Cc1c[nH]c(-c2cnc(NCCNc3ccc(C#N)cn3)nc2-c2ccc(Cl)cc2Cl)n1 [CHIR99021], the “Validated iPSCs colonies” value (HFKTs (KTN); KTN + Cherry (3 reprogramming factors, no c-Myc)) was 6, the “Validated iPSCs colonies” value (HFKTs (KTN); KTN + Stemcca (4 reprogramming factors)) was 2 and the “Generation of iPSCs with reduced number of factors” value (HFKTs (KTN); polycistronic vector with Oct4, Klf4 and Sox2, without c-Myc (cherry vector)) was “able to generate iPSCs with no c-Myc”.
For CC(C)NCC(O)c1ccc(O)c(O)c1 (stereo not shown) [isoproterenol], the “Effect on [Ca2+]i transient and contraction amplitudes” value [1] was “marked concentration-dependent positive inotropic effect; also recorded: increase in contraction amplitude”.

— patent publication US20130130387A1, “METHOD FOR GENERATING INDUCED PLURIPOTENT STEM CELLS FROM KERATINOCYTES DERIVED FROM PLUCKED HAIR FOLLICLES” (Technion Research & Development Foundation Limited, priority 2010, published 2013)
